Organism: Rattus norvegicus
Experiment: Open TG-GATES - Regimen: Daily Repeat
Assay type: toxicity, organism-based, Sprague-Dawley
Parameters: regimen Daily Repeat, gender Male, age 6 weeks
Settings: in vivo, sc, 0.02 mg/kg, route subcutaneous injection, dose 20 ug/Kg, dose level Middle; for APTT / Bas / Eos / Fbg / Hb / Ht / Lym / MCH / MCHC / MCV / Mono / Neu / PT / Plat / RBC / Ret / WBC: tissue Blood; for KIDNEY_L / KIDNEY_R / KIDNEY_TOTAL: tissue Kidney; for LIVER: tissue Liver; for A/G / ALP / ALT / AST / BUN / CRE / Ca / Cl / DBIL / GLC / IP / K / LDH / Na / PL / RALB / TBIL / TC / TG / TP / gamma-GTP: tissue Plasma

Work on CC(=O)O.N=C(N)NCCC[C@@H](NC(=O)[C@@H]1CCCN1C(=O)[C@@H]1CSSCCC(=O)N[C@@H](Cc2ccc(O)cc2)C(=O)N[C@@H](Cc2ccccc2)C(=O)N[C@@H](CCC(N)=O)C(=O)N[C@@H](CC(N)=O)C(=O)N1)C(=O)NCC(N)=O [DESMOPRESSIN ACETATE] yielded a TERMINAL_BW (72 h, time 3 day) of 235.6 g, an APTT (72 h, time 3 day) of 16.2 s and a Bas (72 h, time 3 day) of 0%. The Eos (72 h, time 3 day) was 1%, the Fbg (72 h, time 3 day) was 270.4 mg/dL and the Hb (72 h, time 3 day) was 13.3 g/dL. The Ht (72 h, time 3 day) was 40.4%, the Lym (72 h, time 3 day) was 69.8% and the MCH (72 h, time 3 day) was 21.6 pg. The MCHC (72 h, time 3 day) was 32.8%, the MCV (72 h, time 3 day) was 65.8 fL and the Mono (72 h, time 3 day) was 8.6%. The Neu (72 h, time 3 day) was 20.6%, the PT (72 h, time 3 day) was 11.8 s and the Plat (72 h, time 3 day) was 123.6 x10_4/uL. It also gave an RBC (72 h, time 3 day) of 613.8 x10_4/ul, a Ret (72 h, time 3 day) of 8% and a WBC (72 h, time 3 day) of 99.6 x10_2/uL. It also gave a KIDNEY_L (72 h, time 3 day) of 1.1 g, a KIDNEY_R (72 h, time 3 day) of 1.1 g and a KIDNEY_TOTAL (72 h, time 3 day) of 2.2 g. The LIVER (72 h, time 3 day) was 10.9 g, the A/G (72 h, time 3 day) was 2 and the ALP (72 h, time 3 day) was 1305 IU/L. For the same compound, the ALT (72 h, time 3 day) was 39 IU/L, the AST (72 h, time 3 day) was 72.8 IU/L and the BUN (72 h, time 3 day) was 16.2 mg/dL. The CRE (72 h, time 3 day) was 0.4 mg/dL, the Ca (72 h, time 3 day) was 11.4 mg/dL and the Cl (72 h, time 3 day) was 103 meq/L. It also gave a DBIL (72 h, time 3 day) of 0.012 mg/dL, a GLC (72 h, time 3 day) of 193 mg/dL and an IP (72 h, time 3 day) of 7.9 mg/dL. The K (72 h, time 3 day) was 5.3 meq/L, the LDH (72 h, time 3 day) was 205.2 IU/L and the Na (72 h, time 3 day) was 135 meq/L. It also gave a PL (72 h, time 3 day) of 157.2 mg/dL, an RALB (72 h, time 3 day) of 3.8 g/dL and a TBIL (72 h, time 3 day) of 0.04 mg/dL. It also gave a TC (72 h, time 3 day) of 87.6 mg/dL, a TG (72 h, time 3 day) of 108.8 mg/dL and a TP (72 h, time 3 day) of 5.7 g/dL. The gamma-GTP (72 h, time 3 day) was 1 IU/L, the TERMINAL_BW ([…], time 7 day) was 276.7 g and the TERMINAL_BW ([…], time 14 day) was 325 g. It also gave a TERMINAL_BW ([…], time 28 day) of 428.4 g, an APTT ([…], time 7 day) of 16.6 s and a Bas ([…], time 7 day) of 0%. The Eos ([…], time 7 day) was 1.2%, the Fbg ([…], time 7 day) was 263.2 mg/dL and the Hb ([…], time 7 day) was 13 g/dL. For the same compound, the Ht ([…], time 7 day) was 39.8%, the Lym ([…], time 7 day) was 72.2% and the MCH ([…], time 7 day) was 20.8 pg. The MCHC ([…], time 7 day) was 32.7%, the MCV ([…], time 7 day) was 63.6 fL and the Mono ([…], time 7 day) was 6.8%. It also gave a Neu ([…], time 7 day) of 20%, a PT ([…], time 7 day) of 12.2 s and a Plat ([…], time 7 day) of 125.6 x10_4/uL. It also gave an RBC ([…], time 7 day) of 627 x10_4/ul, a Ret ([…], time 7 day) of 7.1% and a WBC ([…], time 7 day) of 114 x10_2/uL. The APTT ([…], time 14 day) was 17.5 s, the Bas ([…], time 14 day) was 0% and the Eos ([…], time 14 day) was 1.2%. It also gave a Fbg ([…], time 14 day) of 253.6 mg/dL, a Hb ([…], time 14 day) of 14.2 g/dL and a Ht ([…], time 14 day) of 43.2%. For the same compound, the Lym ([…], time 14 day) was 72%, the MCH ([…], time 14 day) was 20 pg and the MCHC ([…], time 14 day) was 32.8%. The MCV ([…], time 14 day) was 60.9 fL, the Mono ([…], time 14 day) was 10.6% and the Neu ([…], time 14 day) was 16.6%. The PT ([…], time 14 day) was 12.2 s, the Plat ([…], time 14 day) was 123.2 x10_4/uL and the RBC ([…], time 14 day) was 710.2 x10_4/ul. It also gave a Ret ([…], time 14 day) of 6%, a WBC ([…], time 14 day) of 101.6 x10_2/uL and an APTT ([…], time 28 day) of 16.7 s. It also gave a Bas ([…], time 28 day) of 0%, an Eos ([…], time 28 day) of 0.8% and a Fbg ([…], time 28 day) of 250 mg/dL. For the same compound, the Hb ([…], time 28 day) was 15 g/dL, the Ht ([…], time 28 day) was 46.3% and the Lym ([…], time 28 day) was 75.8%. For the same compound, the MCH ([…], time 28 day) was 19.3 pg, the MCHC ([…], time 28 day) was 32.5% and the MCV ([…], time 28 day) was 59.4 fL. For the same compound, the Mono ([…], time 28 day) was 6%, the Neu ([…], time 28 day) was 17.4% and the PT ([…], time 28 day) was 11.8 s. For the same compound, the Plat ([…], time 28 day) was 112 x10_4/uL, the RBC ([…], time 28 day) was 780.2 x10_4/ul and the Ret ([…], time 28 day) was 3.5%. It also gave a WBC ([…], time 28 day) of 128.4 x10_2/uL, a KIDNEY_L ([…], time 7 day) of 1.2 g and a KIDNEY_R ([…], time 7 day) of 1.2 g. It also gave a KIDNEY_TOTAL ([…], time 7 day) of 2.5 g, a KIDNEY_L ([…], time 14 day) of 1.3 g and a KIDNEY_R ([…], time 14 day) of 1.4 g. For the same compound, the KIDNEY_TOTAL ([…], time 14 day) was 2.7 g, the KIDNEY_L ([…], time 28 day) was 1.7 g and the KIDNEY_R ([…], time 28 day) was 1.7 g. For the same compound, the KIDNEY_TOTAL ([…], time 28 day) was 3.4 g, the LIVER ([…], time 7 day) was 12.1 g and the LIVER ([…], time 14 day) was 13.4 g. For the same compound, the LIVER ([…], time 28 day) was 16.1 g, the A/G ([…], time 7 day) was 2 and the ALP ([…], time 7 day) was 1103 IU/L. It also gave an ALT ([…], time 7 day) of 29.6 IU/L, an AST ([…], time 7 day) of 69.6 IU/L and a BUN ([…], time 7 day) of 15.4 mg/dL. The CRE ([…], time 7 day) was 0.4 mg/dL, the Ca ([…], time 7 day) was 13.4 mg/dL and the Cl ([…], time 7 day) was 100.2 meq/L. The DBIL ([…], time 7 day) was 0.01 mg/dL, the GLC ([…], time 7 day) was 201 mg/dL and the IP ([…], time 7 day) was 7.9 mg/dL. It also gave a K ([…], time 7 day) of 5.1 meq/L, an LDH ([…], time 7 day) of 160.2 IU/L and a Na ([…], time 7 day) of 130.8 meq/L. It also gave a PL ([…], time 7 day) of 138 mg/dL, an RALB ([…], time 7 day) of 3.6 g/dL and a TBIL ([…], time 7 day) of 0.042 mg/dL. For the same compound, the TC ([…], time 7 day) was 75.8 mg/dL, the TG ([…], time 7 day) was 95 mg/dL and the TP ([…], time 7 day) was 5.5 g/dL. It also gave a gamma-GTP ([…], time 7 day) of 1 IU/L, an A/G ([…], time 14 day) of 1.8 and an ALP ([…], time 14 day) of 1136 IU/L. For the same compound, the ALT ([…], time 14 day) was 29.4 IU/L, the AST ([…], time 14 day) was 68.2 IU/L and the BUN ([…], time 14 day) was 17.8 mg/dL. The CRE ([…], time 14 day) was 0.4 mg/dL, the Ca ([…], time 14 day) was 10.6 mg/dL and the Cl ([…], time 14 day) was 105.8 meq/L. The DBIL ([…], time 14 day) was 0.014 mg/dL, the GLC ([…], time 14 day) was 190.6 mg/dL and the IP ([…], time 14 day) was 7.3 mg/dL. It also gave a K ([…], time 14 day) of 5.3 meq/L, an LDH ([…], time 14 day) of 133.8 IU/L and a Na ([…], time 14 day) of 138.4 meq/L. It also gave a PL ([…], time 14 day) of 130.6 mg/dL, an RALB ([…], time 14 day) of 3.7 g/dL and a TBIL ([…], time 14 day) of 0.032 mg/dL. For the same compound, the TC ([…], time 14 day) was 65.2 mg/dL, the TG ([…], time 14 day) was 109.4 mg/dL and the TP ([…], time 14 day) was 5.7 g/dL. For the same compound, the gamma-GTP ([…], time 14 day) was 1 IU/L, the A/G ([…], time 28 day) was 1.6 and the ALP ([…], time 28 day) was 834.8 IU/L. For the same compound, the ALT ([…], time 28 day) was 27.4 IU/L, the AST ([…], time 28 day) was 65 IU/L and the BUN ([…], time 28 day) was 18 mg/dL. It also gave a CRE ([…], time 28 day) of 0.4 mg/dL, a Ca ([…], time 28 day) of 9.1 mg/dL and a Cl ([…], time 28 day) of 104.2 meq/L. It also gave a DBIL ([…], time 28 day) of 0.014 mg/dL, a GLC ([…], time 28 day) of 190 mg/dL and an IP ([…], time 28 day) of 6.7 mg/dL. It also gave a K ([…], time 28 day) of 4.9 meq/L, an LDH ([…], time 28 day) of 143.8 IU/L and a Na ([…], time 28 day) of 137.6 meq/L. The PL ([…], time 28 day) was 135.2 mg/dL, the RALB ([…], time 28 day) was 3.7 g/dL and the TBIL ([…], time 28 day) was 0.048 mg/dL. It also gave a TC ([…], time 28 day) of 69.4 mg/dL, a TG ([…], time 28 day) of 107.8 mg/dL and a TP ([…], time 28 day) of 6.1 g/dL. It also gave a gamma-GTP ([…], time 28 day) of 0.4 IU/L.

— ChEMBL document CHEMBL3885861, “Open TG-GATES”
